Assay results as given in patent US8735584B2 (Merck Patent GmbH, priority 2008, dated 2014).

Molecular target: T1, GST-Aurora A (Homo sapiens, UniProt O14965)
T1 construct: N-terminal GST fusion with full length Aurora A (1-403 amino acids); purchased Carna Biosciences 05-101
T1 sequence (O14965 1-403): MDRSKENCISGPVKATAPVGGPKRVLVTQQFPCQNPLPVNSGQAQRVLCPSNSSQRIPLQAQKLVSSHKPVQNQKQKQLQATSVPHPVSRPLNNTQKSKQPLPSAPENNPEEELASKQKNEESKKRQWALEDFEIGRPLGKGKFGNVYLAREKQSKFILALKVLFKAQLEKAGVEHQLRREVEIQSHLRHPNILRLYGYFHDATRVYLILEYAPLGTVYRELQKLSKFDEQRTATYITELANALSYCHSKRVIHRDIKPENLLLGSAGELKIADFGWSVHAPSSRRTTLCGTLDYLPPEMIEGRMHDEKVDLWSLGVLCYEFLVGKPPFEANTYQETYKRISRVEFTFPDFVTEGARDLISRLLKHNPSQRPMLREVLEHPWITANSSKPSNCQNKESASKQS
Experiment: Aurora A IC50, Caliper LC3000 mobility shift assay
Type: biochemical
Conditions: LC3000 method; 15 uM ATP (the KM value); read-out: Aurora Kinase A Activity (IC50)
How it was run: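 GST-tagged full-length Aurora A (0.067 ng/ul) with 15 uM ATP (KM) and 1 uM FITC-LRRASLG peptide in 100 mM HEPES pH 7.5, 1 mM MgCl2, 1 mM DTT, Brij-35; 90 min at 25 C, EDTA stop. Off-chip mobility shift read of substrate-to-product conversion; IC50 from sigmoidal dose-response.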

Structure (SMILES) | IC50
O=C(CN1CCC(Nc2ccnc3[nH]c(=O)c4ccccc4c23)CC1)Nc1ccccn1 [Compound 483, 2-(4-(6-Oxo-5,6-dihydrobenzo[c][1,8]naphthyridin-1-ylamino)piperidin-1-yl)-N-(pyridin-2-yl)acetamide] | > 100 nM
O=C(CN1CCC(Nc2ccnc3[nH]c(=O)c4ccccc4c23)CC1)NC1CCCCC1 [Compound 485, N-Cyclohexyl-2-(4-(6-oxo-5,6-dihydrobenzo[c][1,8]naphthyridin-1-ylamino)piperidin-1-yl)acetamide] | > 100 nM
O=C(CN1CCC(Nc2ccnc3[nH]c(=O)c4ccccc4c23)CC1)NC1CC1 [Compound 488, N-Cyclopropyl-2-(4-(6-oxo-5,6-dihydrobenzo[c][1,8]naphthyridin-1-ylamino)piperidin-1-yl)acetamide] | > 100 nM
O=C(Nc1ccc(Nc2ccnc3[nH]c(=O)c4ccccc4c23)cc1)C1(c2ccccc2)CCCC1 [Compound 494, N-(4-(6-Oxo-5,6-dihydrobenzo[c][1,8]naphthyridin-1-ylamino)phenyl)-1-phenylcyclopentanecarboxamide] | 11 to 100 nM
O=C(Nc1ccc(Nc2ccnc3[nH]c(=O)c4ccccc4c23)cc1)C(CC1CCCO1)C(F)(F)F (stereo not drawn) [Compound 495, 3,3,3-Trifluoro-N-(4-(6-oxo-5,6-dihydrobenzo[c][1,8]naphthyridin-1-ylamino)phenyl)-2-((tetrahydrofuran-2-yl)methyl)propanamide] | 11 to 100 nM
O=C(Nc1ccc(Nc2ccnc3[nH]c(=O)c4ccccc4c23)cc1)c1cccnc1C(F)(F)F [Compound 498, N-(4-(6-Oxo-5,6-dihydrobenzo[c][1,8]naphthyridin-1-ylamino)phenyl)-2-(trifluoromethyl)nicotinamide] | < 11 nM
O=C(Nc1ccc(Nc2ccnc3[nH]c(=O)c4ccccc4c23)cc1)C1(C(F)(F)F)CCCCC1 [Compound 499, N-(4-(6-Oxo-5,6-dihydrobenzo[c][1,8]naphthyridin-1-ylamino)phenyl)-1-(trifluoromethyl)cyclohexanecarboxamide] | 11 to 100 nM
O=C(Nc1ccc(Nc2ccnc3[nH]c(=O)c4ccccc4c23)cc1)C1(C(F)(F)F)CCCC1 [Compound 500, N-(4-(6-Oxo-5,6-dihydrobenzo[c][1,8]naphthyridin-1-ylamino)phenyl)-1-(trifluoromethyl)cyclopentanecarboxamide] | 11 to 100 nM
O=C(Nc1ccc(Nc2ccnc3[nH]c(=O)c4ccccc4c23)cc1)C1(C(F)(F)F)CC1 [Compound 501, N-(4-(6-Oxo-5,6-dihydrobenzo[c][1,8]naphthyridin-1-ylamino)phenyl)-1-(trifluoromethyl)cyclopropanecarboxamide] | 11 to 100 nM
O=C(Nc1ccc(Nc2ccnc3[nH]c(=O)c4ccccc4c23)cc1)C1(c2ccccc2)CC1 [Compound 502, N-(4-(6-Oxo-5,6-dihydrobenzo[c][1,8]naphthyridin-1-ylamino)phenyl)-1-phenylcyclopropanecarboxamide] | 11 to 100 nM
O=C(Cn1cccn1)Nc1ccc(Nc2ccnc3[nH]c(=O)c4ccccc4c23)cc1 [Compound 503, N-(4-(6-Oxo-5,6-dihydrobenzo[c][1,8]naphthyridin-1-ylamino)phenyl)-2-(1H-pyrazol-1-yl)acetamide] | 11 to 100 nM
COc1cccc(F)c1C(=O)Nc1ccc(Nc2ccnc3[nH]c(=O)c4ccccc4c23)cc1 [Compound 504, 2-Fluoro-6-methoxy-N-(4-(6-oxo-5,6-dihydrobenzo[c][1,8]naphthyridin-1-ylamino)phenyl)benzamide] | < 11 nM
O=C(Nc1ccc(Nc2ccnc3[nH]c(=O)c4ccccc4c23)cc1)C(F)c1ccccc1 (stereo not drawn) [Compound 505, 2-Fluoro-N-(4-(6-oxo-5,6-dihydrobenzo[c][1,8]naphthyridin-1-ylamino)phenyl)-2-phenylacetamide] | 11 to 100 nM
O=C(Nc1ccc(Nc2ccnc3[nH]c(=O)c4ccccc4c23)cc1)c1ncccc1F [Compound 506, 3-Fluoro-N-(4-(6-oxo-5,6-dihydrobenzo[c][1,8]naphthyridin-1-ylamino)phenyl)picolinamide] | 11 to 100 nM
O=c1[nH]c2ncccc2c2cc(Nc3ccccc3F)ccc12 [Example 32, 9-(2-Fluoro-phenylamino)-5H-benzo[c][1,8]naphthyridin-6-one] | > 100 nM
COc1cccc(CNc2ccc3c(=O)[nH]c4ncccc4c3c2)c1 [Example 42, 9-(3-Methoxy-benzylamino)-5H-benzo[c][1,8]naphthyridin-6-one] | > 100 nM
O=c1[nH]c2ncccc2c2cc(NCc3ccc(F)cc3)ccc12 [Example 43, 9-(4-Fluoro-benzylamino)-5H-benzo[c][1,8]naphthyridin-6-one] | > 100 nM
O=c1[nH]c2ncccc2c2cc(NCc3ccccc3F)ccc12 [Example 44, 9-(2-Fluoro-benzylamino)-5H-benzo[c][1,8]naphthyridin-6-one] | 11 to 100 nM

Structure (SMILES) | IC50
O=c1[nH]c2ncccc2c2cc(NCc3cccc4ccccc34)ccc12 [Example 45, 9-[(Naphthalen-1-ylmethyl)-amino]-5H-benzo[c][1,8]naphthyridin-6-one] | > 100 nM
Cc1ccccc1CNc1ccc2c(=O)[nH]c3ncccc3c2c1 [Example 46, 9-(2-Methyl-benzylamino)-5H-benzo[c][1,8]naphthyridin-6-one] | > 100 nM
Cc1cccc(CNc2ccc3c(=O)[nH]c4ncccc4c3c2)c1 [Example 47, 9-(3-Methyl-benzylamino)-5H-benzo[c][1,8]naphthyridin-6-one] | > 100 nM
O=c1[nH]c2ncccc2c2cc(NCc3ccccc3C(F)(F)F)ccc12 [Example 48, 9-(2-Trifluoromethyl-benzylamino)-5H-benzo[c][1,8]naphthyridin-6-one] | 11 to 100 nM
Clc1nc2ncccc2c2cc(NCc3ccccc3)ccc12 [Example 53, Benzyl-(6-chloro-benzo[c][1,8]naphthyridin-9-yl)-amine] | > 100 nM
O=c1[nH]c2ncccc2c2cc(NCc3cccc(C(F)(F)F)c3)ccc12 [Example 69, 9-(3-Trifluoromethyl-benzylamino)-5H-benzo[c][1,8]naphthyridin-6-one] | 11 to 100 nM
O=c1[nH]c2ncccc2c2cc(NS(=O)(=O)c3ccc(Br)cc3)ccc12 [Example 72, 4-Bromo-N-(6-oxo-5,6-dihydro-benzo[c][1,8]naphthyridin-9-yl)-benzenesulfonamide] | > 100 nM
O=c1[nH]c2ncccc2c2cc(NCc3cccnc3)ccc12 [Example 123, 9-[(Pyridin-3-ylmethyl)-amino]-5H-benzo[c][1,8]naphthyridin-6-one] | > 100 nM
COc1ccccc1C(=O)Nc1ccc(Nc2ccnc3[nH]c(=O)c4ccccc4c23)cc1 [Example 148, 2-Methoxy-N-[4-(6-oxo-5,6-dihydro-benzo[c][1,8]naphthyridin-1-ylamino)-phenyl]-benzamide] | < 11 nM
Cn1ccnc1Sc1ccc(Nc2ccnc3[nH]c(=O)c4ccccc4c23)cc1Cl [Example 156, 1-[3-Chloro-4-(1-methyl-1H-imidazol-2-ylsulfanyl)-phenylamino]-5H-benzo[c][1,8]naphthyridin-6-one] | > 100 nM
COc1cccc(C#Cc2ccnc3[nH]c(=O)c4ccccc4c23)c1 [Example 160, 1-(3-Methoxy-phenylethynyl)-5H-benzo[c][1,8]naphthyridin-6-one] | > 100 nM
O=c1[nH]c2nccc(Oc3ccc(NS(=O)(=O)c4cccc(Cl)c4Cl)cc3)c2c2ccccc12 [Example 173, 2,3-Dichloro-N-[4-(6-oxo-5,6-dihydro-benzo[c][1,8]naphthyridin-1-yloxy)-phenyl]-benzenesulfonamide] | 11 to 100 nM
O=C(Nc1ccc(Oc2ccnc3[nH]c(=O)c4ccccc4c23)cc1)c1cccn(-c2ccc(F)cc2)c1=O [Example 181, 1-(4-Fluoro-phenyl)-2-oxo-1,2-dihydro-pyridine-3-carboxylic acid [4-(6-oxo-5,6-dihydro-benzo[c][1,8]naphthyridin-1-yloxy)-phenyl]-amide] | > 100 nM
O=C(Nc1ccc(Oc2ccnc3[nH]c(=O)c4ccccc4c23)c(F)c1)c1cc(Cl)cnc1Cl [Example 183, 2,5-Dichloro-N-[3-fluoro-4-(6-oxo-5,6-dihydro-benzo[c][1,8]naphthyridin-1-yloxy)-phenyl]-nicotinamide] | > 100 nM
O=C(Nc1ccc(Oc2ccnc3[nH]c(=O)c4ccccc4c23)cc1F)c1cccn(-c2ccc(F)cc2)c1=O [Example 187, 1-(4-Fluoro-phenyl)-2-oxo-1,2-dihydro-pyridine-3-carboxylic acid [2-fluoro-4-(6-oxo-5,6-dihydro-benzo[c][1,8]naphthyridin-1-yloxy)-phenyl]-amide] | > 100 nM
O=c1[nH]c2nccc(Nc3c(Cl)ccc4c3OCO4)c2c2ccccc12 [Example 188, 1-(5-Chloro-benzo[1,3]dioxol-4-ylamino)-5H-benzo[c][1,8]naphthyridin-6-one] | > 100 nM
COc1cc2c(=O)[nH]c3nccc(Nc4ccc(Cl)cc4)c3c2cc1OC [Example 213, 1-(4-Chloro-phenylamino)-8,9-dimethoxy-5H-benzo[c][1,8]naphthyridin-6-one] | 11 to 100 nM
COc1cc2c(=O)[nH]c3nccc(Nc4ccc(F)cc4)c3c2cc1OC [Example 215, 1-(4-Fluoro-phenylamino)-8,9-dimethoxy-5H-benzo[c][1,8]naphthyridin-6-one] | > 100 nM
